Assay results reported in PubChem BioAssay (NCI).
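Exposure lasted 48 hours, with cells grown in 96-well plates and compounds tested at five concentrations. At the GI50, growth is halved. The concentration for full growth arrest is given as TGI.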

What was measured:
Assay in all cases: NCI-60 cell line screen, 48 h
[1] = tested on: A549 NSCLC
[2] = tested on: HCT-116 colon
[3] = tested on: HT29 colon
[4] = tested on: EKVX NSCLC
[5] = tested on: NCI-H23 lung
[6] = tested on: SK-OV-3 ovarian
[7] = tested on: COLO 205 colon
[8] = tested on: CAKI-1 renal
[9] = tested on: IGROV1 ovarian
[10] = tested on: NCI/ADR-RES ovarian

CC(C)NC1CCCCC2c3ccccc3C12O (configuration not stated)
TGI [1]: > 100 µM | TGI [2]: > 100 µM | TGI [3]: > 100 µM | TGI [4]: > 100 µM | TGI [5]: > 100 µM | TGI [6]: > 100 µM | TGI [7]: > 100 µM

CCOc1ccc2c(c1)[n+]([O-])c(-c1ccccc1)c(N)[n+]2[O-]
TGI [8]: 89.4 µM | TGI [9]: > 100 µM | TGI [1]: > 100 µM | TGI [3]: > 100 µM | TGI [4]: > 100 µM | TGI [5]: 91.3 µM | TGI [6]: > 100 µM | TGI [7]: 81.8 µM

O=C(c1ccccc1)[C@H]1Nc2ccc(Cl)cc2[C@H]2c3ccccc3O[C@H]21
TGI [8]: 29.1 µM | TGI [9]: 38.2 µM | TGI [1]: 30.2 µM | TGI [2]: 34.3 µM | TGI [3]: 26.1 µM | TGI [4]: 28.6 µM | TGI [5]: 28.1 µM | TGI [7]: 37.4 µM

CCN(CC)C(=O)c1cccc2c(OC)ccc(OC)c12
TGI [8]: > 100 µM | TGI [9]: > 100 µM | TGI [1]: > 100 µM | TGI [2]: > 100 µM | TGI [3]: > 100 µM | TGI [4]: > 100 µM | TGI [5]: > 100 µM | TGI [6]: > 100 µM | TGI [7]: > 100 µM

Cc1cc(C)c2c(c1)CSCc1cc(C)cc(C)c1-2
TGI [8]: 76.8 µM | TGI [9]: > 100 µM | TGI [1]: > 100 µM | TGI [2]: 60.5 µM | TGI [3]: 47.1 µM | TGI [4]: 81.9 µM | TGI [5]: > 100 µM | TGI [6]: > 100 µM | TGI [7]: 73.3 µM

CN(N=O)C(=O)NC(CCCCNC(=O)OCc1ccccc1)C(=O)OCc1ccccc1 (configuration not stated)
TGI [8]: 52.8 µM | TGI [9]: > 100 µM | TGI [1]: > 100 µM | TGI [2]: > 100 µM | TGI [3]: > 100 µM | TGI [4]: > 100 µM | TGI [5]: 51.3 µM | TGI [6]: > 100 µM | TGI [7]: 47.2 µM

Cc1cccc(-c2nc(=S)[nH][nH]2)c1
TGI [8]: > 100 µM | TGI [9]: > 100 µM | TGI [1]: > 100 µM | TGI [2]: > 100 µM | TGI [3]: > 100 µM | TGI [4]: > 100 µM | TGI [5]: > 100 µM | TGI [6]: > 100 µM | TGI [7]: > 100 µM

CCN(CC)P(=O)(c1ccc2c(c1)OCCOCCOCCOCCO2)N(CC)CC
TGI [8]: > 100 µM | TGI [9]: > 100 µM | TGI [1]: > 100 µM | TGI [2]: > 100 µM | TGI [4]: > 100 µM | TGI [5]: > 100 µM | TGI [6]: > 100 µM | TGI [7]: > 100 µM

COc1ccc(/C=C2\C(=O)N(C(=O)c3ccc(NC(C)=O)cc3)N=C2C)cc1OC
TGI [8]: > 100 µM | TGI [1]: > 100 µM | TGI [2]: > 100 µM | TGI [3]: > 100 µM | TGI [4]: > 100 µM | TGI [5]: > 100 µM | TGI [7]: > 100 µM

CCCCCCCCCCCC(c1ccccc1)[N+](C)(C)C (configuration not stated)
GI50 [8]: 9.98 µM | TGI [8]: 26 µM | GI50 [9]: 417 nM | TGI [9]: 1.79 µM | GI50 [1]: 1460 nM | TGI [1]: 3.97 µM | GI50 [3]: 0.296 µM | TGI [3]: 2.45 µM | GI50 [4]: 1.45 µM | TGI [4]: 4.63 µM | GI50 [5]: 1 µM | TGI [5]: 5.86 µM | GI50 [10]: > 100 µM | TGI [10]: > 100 µM | GI50 [6]: 1.86 µM | TGI [6]: 6.09 µM | GI50 [7]: 825 nM | TGI [7]: 2.2 µM

O=S(=O)(c1ccccc1)N1CCC1c1ccccc1 (configuration not stated)
TGI [9]: > 100 µM | TGI [1]: > 100 µM | TGI [2]: > 100 µM | TGI [3]: > 100 µM | TGI [4]: > 100 µM | TGI [5]: > 100 µM | TGI [6]: > 100 µM | TGI [7]: > 100 µM

Cc1cnoc1/N=C1\C=C(Nc2oncc2C)C(=O)c2ccccc21
TGI [8]: > 100 µM | TGI [9]: > 100 µM | TGI [1]: > 100 µM | TGI [2]: > 100 µM | TGI [3]: > 100 µM | TGI [4]: > 100 µM | TGI [5]: > 100 µM | TGI [6]: > 100 µM | TGI [7]: > 100 µM

[N-]=[N+]=NC1C(Cl)C(=O)NC(=O)N1[C@H]1C[C@H](O)[C@@H](CO)O1 (some centres not stated)
TGI [8]: > 100 µM | TGI [9]: > 100 µM | TGI [1]: > 100 µM | TGI [3]: > 100 µM | TGI [4]: > 100 µM | TGI [5]: > 100 µM | TGI [6]: > 100 µM | TGI [7]: > 100 µM

CC1=NC2(C(=O)O)C3(C(=O)O)N=C(C)OC3(C(F)(F)F)C2(C(F)(F)F)O1 (configuration not stated)
TGI [8]: > 100 µM | TGI [9]: > 100 µM | TGI [1]: > 100 µM | TGI [2]: > 100 µM | TGI [3]: > 100 µM | TGI [4]: > 100 µM | TGI [5]: > 100 µM | TGI [6]: > 100 µM | TGI [7]: > 100 µM

Clc1ccc(NCNC2Nc3ccccc3N2)cc1Cl
TGI [8]: > 100 µM | TGI [1]: > 100 µM | TGI [2]: > 100 µM | TGI [3]: 64 µM | TGI [4]: > 100 µM | TGI [5]: > 100 µM | TGI [10]: > 100 µM | TGI [6]: > 100 µM | TGI [7]: > 100 µM

CN(c1ccccc1)c1nc(=[N+](C)C)ss1
TGI [8]: > 100 µM | TGI [9]: > 100 µM | TGI [1]: > 100 µM | TGI [2]: > 100 µM | TGI [3]: > 100 µM | TGI [4]: > 100 µM | TGI [5]: > 100 µM | TGI [6]: > 100 µM

CN(C)C(=C1C(Br)=C(Br)C(Br)=C1Br)N(C)C
TGI [8]: > 100 µM | TGI [9]: > 100 µM | TGI [1]: > 100 µM | TGI [3]: > 100 µM | TGI [4]: > 100 µM | TGI [5]: > 100 µM | TGI [6]: > 100 µM | TGI [7]: > 100 µM

Cc1c2ccccc2c(=O)n2c(-c3ccccn3)cccc12
TGI [8]: > 100 µM | TGI [9]: > 100 µM | TGI [1]: > 100 µM | TGI [2]: > 100 µM | TGI [3]: > 100 µM | TGI [4]: > 100 µM | TGI [5]: > 100 µM | TGI [6]: > 100 µM | TGI [7]: > 100 µM

O=S1(=O)[C@H](c2ccccc2)c2c(-c3ccccc3)sc(-c3ccccc3)c2[C@@H]1c1ccccc1
TGI [8]: > 100 µM | TGI [9]: > 100 µM | TGI [1]: > 100 µM | TGI [3]: > 100 µM | TGI [4]: > 100 µM | TGI [5]: > 100 µM | TGI [6]: > 100 µM | TGI [7]: > 100 µM

N#Cc1cnc2ccc(NCc3cnc[nH]3)cc2c1Nc1ccc(F)c(Cl)c1
GI50 [9]: 2600 nM | TGI [9]: > 100 µM | GI50 [2]: 6.85 µM | TGI [2]: > 100 µM | GI50 [3]: > 100 µM | TGI [3]: > 100 µM | GI50 [5]: > 100 µM | TGI [5]: > 100 µM | GI50 [10]: > 100 µM | TGI [10]: > 100 µM | GI50 [6]: 4.2 µM | TGI [6]: > 100 µM | GI50 [7]: > 100000 nM | TGI [7]: > 100 µM

CCOc1ccc2c(c1)[n+]([O-])c(C(N)=O)c(N)[n+]2[O-]
TGI [8]: > 100 µM | TGI [9]: > 100 µM | TGI [1]: > 100 µM | TGI [2]: > 100 µM | TGI [3]: > 100 µM | TGI [4]: > 100 µM | TGI [5]: > 100 µM | TGI [6]: > 100 µM | TGI [7]: > 100 µM

COC(=O)C1=C(C(=O)OC)C23CC4CCC2(C(=O)C1O3)C4(C)C (configuration not stated)
TGI [8]: > 100 µM | TGI [9]: > 100 µM | TGI [1]: > 100 µM | TGI [2]: > 100 µM | TGI [3]: > 100 µM | TGI [5]: > 100 µM | TGI [6]: > 100 µM | TGI [7]: > 100 µM

Oc1ccc(CCNc2nc3ccccc3c3[nH]c4ccccc4c23)cc1O
GI50 [8]: 11 µM | TGI [8]: 22.9 µM | GI50 [1]: 2260 nM | TGI [1]: 5.95 µM | GI50 [2]: 1.4 µM | TGI [2]: 2.7 µM | GI50 [3]: 3.2 µM | TGI [3]: 11.1 µM | GI50 [4]: 8.99 µM | TGI [4]: 37.4 µM | GI50 [5]: 6.87 µM | TGI [5]: 22.7 µM | GI50 [10]: 9.15 µM | TGI [10]: 32.2 µM | GI50 [6]: 10.7 µM | TGI [6]: 22.6 µM | GI50 [7]: 2270 nM | TGI [7]: 6.8 µM
